Measured values as given in patent US8183236B2, “Compounds with HIV-1 integrase inhibitory activity and use thereof as anti-HIV/AIDS therapeutics” (University of Southern California, priority 2007, dated 2012).

Assays:
[1] = biological target: T1, HIV-1 integrase (wild-type IN) (Human immunodeficiency virus type 1 group M subtype B, UniProt P12497); test: HIV-1 integrase strand transfer assay (32P-labeled 21-mer, gel); format: biochemical
Text: (§1) The oligonucleotides 21 top, 5′-[…]-3′ (SEQ ID NO:1) and 21 bot, 5′-[…]-3′ (SEQ ID NO:2) were purchased from Norris Cancer Center Core Facility (University of Southern California) and purified by UV shadowing on polyacrylamide gel. To analyze the extent of 3′-processing and strand transfer using 5′-end labeled substrates, 21 top was 5′-end labeled using T4 polynucleotide kinase (Epicentre, Madison, Wis.) and γ [^32P]-ATP (Amersham Biosciences or ICN). The kinase was heat-inactivated and 21 bot was added in 1.5-molar excess. The mixture was heated at 95° C., allowed to cool slowly to room temperature, and run through a spin 25 mini-column (USA Scientific) to separate annealed double-stranded oligonucleotide from unincorporated material.
(§2) To determine the extent of 3′-processing and strand transfer, wild-type IN was preincubated at a final concentration of 200 nM with the inhibitor in reaction buffer (50 mM NaCl, 1 mM HEPES, pH 7.5, 50 μM EDTA, 50 μM dithiothreitol, 10% glycerol (w/v), 7.5 mM MnCl2, 0.1 mg/ml bovine serum albumin, 10 mM 2-mercaptoethanol, 10% dimethyl sulfoxide, and 25 mM MOPS, pH 7.2) at 30° C. for 30 min. Then, 20 nM of the 5′-end ^32P-labeled linear oligonucleotide substrate was added, and incubation was continued for an additional one hour. Reactions were quenched by the addition of an equal volume (16 μl) of loading dye (98% deionized formamide, 10 mM EDTA, 0.025% xylene cyanol and 0.025% bromophenol blue). An aliquot (5 μl) was electrophoresed on a denaturing 20% polyacrylamide gel (0.09 M tris-borate pH 8.3, 2 mM EDTA, 20% acrylamide, 8M urea).
(§3) Gels were dried, exposed in a PhosphorImager cassette, and analyzed using a Typhoon 8610 Variable Mode Imager (Amersham Biosciences) and quantitated using ImageQuant 5.2. Percent inhibition (% I) was calculated using the following equation: %I=100×[1−(D−C)/(N−C)]
(§4) where C, N, and D are the fractions of 21-mer substrate converted to 19-mer (3′-processing product) or strand transfer products for DNA alone, DNA plus IN, and IN plus drug, respectively. The IC50 values were determined by plotting the logarithm of drug concentration versus percent inhibition to obtain concentration that produced 50% inhibition. […]

[2] = biological target: T1, HIV-1 integrase (wild-type IN); test: HIV-1 integrase 3′-processing assay (32P-labeled 21-mer, gel); format: biochemical
Text: as §1, §2, §3, §4

[3] = unit inferred, read-out: IN inhibition activity Strand transfer
[4] = unit inferred, read-out: IN inhibition activity 3′-processing
[5] = wild-type IN 200 nM, 7.5 mM MnCl2, read-out: Inhibition of IN Catalytic Activities IC50 (μM) Strand Transfer
[6] = wild-type IN 200 nM, 7.5 mM MnCl2, read-out: Inhibition of IN Catalytic Activities IC50 (μM) 3′-processing
[7] = unit inferred, read-out: HIV-1 IN Inhibitory Activities Strand transfer
[8] = unit inferred, read-out: HIV-1 IN Inhibitory Activities 3′-processing

Row | SMILES | IC50 [1, 3] [µM] | IC50 [2, 4] [µM] | IC50 [1, 5] [µM] | IC50 [2, 6] [µM] | IC50 [1, 7] [µM] | IC50 [2, 8] [µM]
1 | O=C(O)c1cccc(-c2ccc(/C=N/N(c3ccccc3)c3ccccc3)o2)c1 [AV15A27] | 26 ± 12 | 42 ± 24 | – | – | – | –
2 | O=C(O)c1ccc(-c2ccc(/C=N/Nc3nc(Nc4ccccc4)nc(Nc4ccccc4)n3)o2)cc1O [AV15A28] | > 100 | > 100 | – | – | – | –
3 | N#C/C(=C\c1ccc(-c2ccc(C(=O)O)c(O)c2)o1)c1nc2ccccc2[nH]1 [AV15A31] | 24 | 34 | – | – | – | –
4 | Cc1cc2nc3s/c(=C\c4ccc(-c5cccc(C(=O)O)c5)o4)c(=O)n3c2cc1C [AV15A32] | > 100 | > 100 | – | – | – | –
5 | CC(C)(C)c1ccc(OCC(=O)N/N=C/c2ccc(-c3cccc(C(=O)O)c3)o2)cc1 [AV15A35] | 86 | > 100 | – | – | – | –
6 | CC(C)(C)c1ccc(C(=O)N/N=C/c2ccc(-c3cccc(C(=O)O)c3)o2)cc1 [AV15A36] | 56 ± 22 | > 100 | – | – | – | –
7 | Cc1nnc(N/N=C/c2ccc(-c3ccccc3C(=O)O)o2)n1N [AV15A37] | > 100 | > 100 | – | – | – | –
8 | COc1cc(C(=O)N/N=C/c2ccc(-c3cccc(C(=O)O)c3)o2)cc(OC)c1OC [AV15A38] | 49 ± 12 | > 100 | – | – | – | –
9 | Clc1ccc(-c2ccc(/C=N/Nc3nc(Nc4ccccc4)nc(Nc4ccccc4)n3)o2)cc1 [AV15A39] | > 100 | > 100 | – | – | – | –
10 | O=C(N/N=C/c1ccc(-c2ccc(Cl)c(C(=O)O)c2)o1)c1ccncc1 [AV15A40] | 46 ± 23 | 90 ± 18 | – | – | – | –
11 | O=C(N/N=C/c1ccc(-c2ccc(Cl)c(C(=O)O)c2)o1)c1ccc(F)cc1 [AV15A41] | > 100 | > 100 | – | – | – | –
12 | O=C(O)c1cccc(-c2ccc(/C=N/Nc3nc4ccccc4s3)o2)c1 [AV15A43] | 24 ± 11 | 63 ± 7 | – | – | – | –
13 | CC1=C(C#N)c2nc(N)c(C#N)c(C)c2/C1=C/c1ccc(-c2ccc(C(=O)O)c(Cl)c2)o1 [AV15A44] | 68 ± 22 | > 100 | – | – | – | –
14 | CC1=C(C#N)c2nc(N)c(C#N)c(C)c2/C1=C/c1ccc(-c2ccccc2C(=O)O)o1 [AV15A45] | 39 | 91 ± 16 | – | – | – | –
15 | COC(=O)c1ccccc1-c1ccc(/C=C(\C#N)c2nc3ccccc3[nH]2)o1 [AV15A46] | > 100 | > 100 | – | – | – | –
16 | O=C(Cc1ccc(F)cc1)N/N=C/c1ccc(-c2ccc(Cl)c(C(=O)O)c2)o1 [AV15A47] | > 100 | > 100 | – | – | – | –
17 | CC1=C(C#N)c2nc(N)c(C#N)c(C)c2/C1=C/c1ccc(-c2ccc(F)cc2)o1 [AV15A48] | > 100 | > 100 | – | – | – | –
18 | CC1=C(C#N)c2nc(N)c(C#N)c(C)c2/C1=C/c1ccc(-c2ccccc2C(=O)O)o1 [AV15A54] | > 100 | > 100 | – | – | – | –
19 | O=C(O)c1cccc(-c2ccc(/C=N/Nc3nc4nonc4nc3Nc3ccc(F)cc3)o2)c1 [AV30] | 4 ± 1 | 10 ± 3 | 4 | 10 | – | –
20 | CC(C)(C)c1ccc(C2C(C(=O)c3ccc(F)cc3)=C(O)C(=O)N2c2nncs2)cc1 (stereo not shown) [Compound M28A2] | 43 ± 8 | 64 ± 28 | – | – | – | –
21 | Cc1ccc(C(=O)C2=C(O)C(=O)N(c3nccs3)C2c2ccc(Cl)cc2)cc1 (stereo not shown) [Compound M28A6] | 39 ± 3 | 56 ± 10 | – | – | – | –
22 | Cc1ccc(C(=O)C2=C(O)C(=O)N(c3nccs3)C2c2ccc(F)cc2)cc1 (stereo not shown) [Compound M28A7] | 78 ± 10 | > 100 | – | – | – | –
23 | O=C(C1=C(O)C(=O)N(c2nc3ccccc3s2)C1c1ccc2c(c1)OCO2)c1ccccc1 (stereo not shown) [Compound M28A8] | 21 ± 10 | 57 ± 10 | – | – | – | –
24 | CCOC(=O)c1sc(N2C(=O)C(O)=C(C(=O)c3ccccc3)C2c2ccc(F)cc2)nc1C (stereo not shown) [Compound M28A10] | 21 ± 4 | 44 ± 4 | – | – | – | –

Row | SMILES | IC50 [1, 3] [µM] | IC50 [2, 4] [µM] | IC50 [1, 5] [µM] | IC50 [2, 6] [µM] | IC50 [1, 7] [µM] | IC50 [2, 8] [µM]
25 | CCOc1ccc(C(=O)C2=C(O)C(=O)N(c3nccs3)C2c2ccc(OC)cc2)cc1 (stereo not shown) [Compound M28A11] | 90 ± 17 | > 100 | – | – | – | –
26 | CCOC(=O)c1sc(N2C(=O)C(O)=C(C(=O)c3ccc(C)cc3)C2c2ccc(F)cc2)nc1C (stereo not shown) [Compound M28A18] | 33 ± 25 | > 100 | – | – | – | –
27 | O=C(C1=C(O)C(=O)N(c2nc3ccccc3s2)C1c1cccnc1)c1ccc(Cl)cc1 (stereo not shown) [Compound M28A21] | 90 ± 10 | > 100 | – | – | – | –
28 | O=C(C1=C(O)C(=O)N(c2nc3ccccc3s2)C1c1ccccn1)c1ccc(Cl)cc1 (stereo not shown) [Compound M28A22] | 83 ± 12 | > 100 | – | – | – | –
29 | N=C1S/C(=C/c2ccc(-c3ccccc3C(=O)O)o2)C(=O)N1c1ccc2c(c1)OCO2 [Compound T36] | 6.5 ± 1 | 12 ± 6 | – | – | – | –
30 | O=C(O)CCCCCN1C(=O)C(O)=C(C(=O)c2ccc(Cl)cc2)C1c1ccc2c(c1)OCO2 (stereo not shown) [Compound T38] | 20 | 25 | – | – | 20 | 25
31 | O=C(Cc1ccccc1)Nc1cc(C(=O)O)c(NC(=O)Cc2ccccc2)cc1C(=O)O [Compound X7] | – | – | 7 | 9 | – | –
32 | O=C(O)c1cc(NC(=O)c2cccc3ccccc23)c(C(=O)O)cc1NC(=O)c1cccc2ccccc12 [Compound X8] | – | – | 21 | 28 | – | –
33 | COc1ccc(C=C2SC(=S)N(CCC(=O)Nc3cccc(C(=O)O)c3)C2=O)cc1 [Compound X26] | – | – | > 100 | > 100 | – | –
34 | CC(=O)C1=C(O)C(=O)N(CC(=O)O)C1c1ccc(Br)cc1 (stereo not shown) [Compound X36] | – | – | – | – | > 100 | > 100
35 | Cc1ccc(C2C(C(=O)c3ccc(Cl)cc3)=C(O)C(=O)N2CC(=O)O)cc1 (stereo not shown) [Compound X81] | 69 ± 36 | 84 ± 23 | – | – | 69 | 84
36 | CCOC(=O)N1CCN(C(=O)CCN2C(=O)/C(=C/c3ccc(OC)c(OC)c3)SC2=S)CC1 [Compound X90] | – | – | > 100 | > 100 | – | –
37 | CCc1ccc(C=C2SC(=S)N(CC(=O)Nc3cccc(C(=O)O)c3)C2=O)cc1 [Compound X91] | – | – | > 100 | > 100 | – | –
38 | O=C(CCN1C(=O)C(=Cc2ccc3c(c2)OCO3)SC1=S)Nc1ccc(O)c(C(=O)O)c1 [Compound X94] | – | – | 17 ± 11 | 15 ± 10 | – | –
39 | CCOc1ccc(C=C2SC(=S)N(CCC(=O)Nc3cccc(C(=O)O)c3)C2=O)cc1 [Compound X95] | – | – | > 100 | 93 ± 12 | – | –
40 | Cc1ccc(C=C2SC(=S)N(CC(=O)Nc3cccc(C(=O)O)c3)C2=O)cc1 [Compound X97] | – | – | > 100 | 98 ± 4 | – | –
41 | O=C(CN1C(=O)/C(=C2\SC(=S)N(CC(=O)Nc3ccc(C(=O)O)cc3)C2=O)SC1=S)Nc1ccc(C(=O)O)cc1 [Compound X102] | – | – | 75 | 59 ± 31 | – | –
42 | O=C(CN1C(=O)/C(=C2\SC(=S)N(CC(=O)Nc3ccc(O)cc3)C2=O)SC1=S)Nc1ccc(O)cc1 [Compound X103] | – | – | 69 | 59 ± 37 | – | –
43 | COc1cc(C(=O)Nc2ccc(O)c(C(=O)O)c2)cc(OC)c1OC [Compound X108] | – | – | > 100 | > 100 | – | –
44 | Cc1ccc(/C=C2\SC(=S)N(CCC(=O)Nc3ccc(S(=O)(=O)Nc4nccs4)cc3)C2=O)cc1 [Compound X124] | – | – | 44 ± 16 | 83 ± 21 | – | –
45 | O=C(O)c1ccc(S(=O)(=O)c2ccc3c(c2)C(=O)N(c2ccc(O)c(C(=O)O)c2)C3=O)cc1 [Compound X125] | – | – | 44 ± 4 | 66 ± 6 | – | –
46 | Cc1ccc2[nH]c(/C(C#N)=C\c3ccc(-c4ccc(C(=O)O)c(O)c4)o3)nc2c1 [Compound X132] | – | – | 8 ± 1 | 16 ± 5 | – | –
47 | COc1ccc2oc(=O)c(-c3csc(N/N=C/c4ccccc4O)n3)cc2c1 [Compound X143] | – | – | – | – | 10 | 30
